PubChem BioAssay (NCI)
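Interpolation was linear, between the two tested concentrations surrounding the appropriate level; five concentrations were tested over 48 hours in 96-well plates. Definition used: TGI = concentration required for complete inhibition of growth.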

Experiments:
Assay in all cases: NCI tumour cell line growth inhibition, 48 h
A498 renal = tested on: A498 renal
ACHN renal = tested on: ACHN renal
EKVX NSCLC = tested on: EKVX NSCLC
HOP-62 NSCLC = tested on: HOP-62 NSCLC
IGROV1 ovarian = tested on: IGROV1 ovarian
MDA-MB-231 breast = tested on: MDA-MB-231 breast
MOLT-4 leukemia = tested on: MOLT-4 leukemia
NCI-H23 lung = tested on: NCI-H23 lung
SK-MEL-2 melanoma = tested on: SK-MEL-2 melanoma
SK-OV-3 ovarian = tested on: SK-OV-3 ovarian
U251 CNS = tested on: U251 CNS
RXF 393 renal = tested on: RXF 393 renal
HCC-2998 colon = tested on: HCC-2998 colon

Row | SMILES | TGI (A498 renal) [µM] | TGI (ACHN renal) [µM] | TGI (EKVX NSCLC) [µM] | TGI (HOP-62 NSCLC) [µM] | TGI (IGROV1 ovarian) [µM] | TGI (MDA-MB-231 breast) [µM] | TGI (MOLT-4 leukemia) [µM] | TGI (NCI-H23 lung) [µM] | TGI (SK-MEL-2 melanoma) [µM] | TGI (SK-OV-3 ovarian) [µM] | TGI (U251 CNS) [µM] | TGI (RXF 393 renal) [µM] | TGI (HCC-2998 colon) [µM]
1 | CC(=O)OCC(=O)OC[C@H](OCc1ccccc1)[C@@H]1[C@H](OC(C)=O)C(=O)N1Cc1ccccc1 | > 100 | > 100 | > 100 | > 100 | > 100 | > 100 | > 100 | > 100 | > 100 | > 100 | > 100 |  | 
2 | O=[S@]1c2ccc3ccccc3c2N[C@@H]2[C@H]1[C@H]1C=C[C@@H]2C1 | > 100 | > 100 | > 100 | > 100 | > 100 | > 100 | > 100 | > 100 | > 100 | > 100 | > 100 | 95.1 | 
3 | COc1cc(C2(c3ncc[nH]3)SSSCC2O)ccc1O (stereo unspecified) | > 100 |  | > 100 | > 100 | > 100 |  | > 54.7 | > 100 | > 100 | > 100 | > 100 | 89.4 | 77
4 | CCCCCCCCCOCC(COP(=O)([O-])OCC[N+](C)(C)C)OC (stereo unspecified) | > 100 |  | > 100 | > 100 | > 100 |  | > 100 | > 100 | > 100 | > 100 | > 100 | > 100 | > 100
5 | CCC(C)[C@@H](Nc1c(O)c2c(c(O)c1Cl)C(=O)C=CC2=O)C(=O)OC (stereo partly specified) |  | > 10 | > 10 | > 10 | > 10 | 7.81 | 5.94 | 5.7 | > 10 | > 10 | 8.83 |  | > 10
6 | COc1c(C(=O)NCCN(CCNC(=O)c2cccc(-c3cccc(C(=O)N(C)C)c3OC)c2OC)CCNC(=O)c2cccc(-c3cccc(C(=O)N(C)C)c3OC)c2OC)cccc1-c1cccc(C(=O)N(C)C)c1OC |  | > 100 | > 100 | > 100 | > 100 | 81.2 | 72.4 | > 100 |  | > 100 | > 100 | 63 | 33.1
7 | CCN(CC)CCN(C)c1ccc(CO)c2c1C(=O)c1ccccc1S2=O (stereo unspecified) | 23.4 | 23.8 | 13.6 | 8.71 | 32.8 | 7.7 |  | 8.29 | 40.1 | 32.4 | 3.27 | 36 | 2.99
8 | COC(=O)/C=C1/OC(c2ccccc2)=C(C)C1=O | 32.8 | 25.7 | 32 | 31.4 | 28.4 | 15.7 | > 100 | 43.6 |  | 22.6 | 27.1 | 22.5 | 30.2
9 | CCOC(=O)CC(NC(=O)c1[nH]cnc1/N=N/N(C)C)C(=O)OCC (stereo unspecified) | > 100 | > 100 | > 100 | > 100 | > 100 |  | > 100 | > 100 | > 100 | > 100 | > 100 |  | > 100
10 | CCOP(=O)(OCC)C(NC(=O)C(C(F)(F)F)C(F)(F)F)c1ccccc1 (stereo unspecified) |  | > 100 | > 100 | > 100 | > 100 | > 100 | > 100 | > 100 | > 100 | > 100 | > 100 | > 100 | > 100
11 | CCCSc1ccc2[nH]c(N3C(=O)/C(=C/c4ccc(SC)cc4)N=C3c3ccccc3)cc2c1 | > 50 | > 50 | > 50 | > 50 | > 50 | > 50 |  | > 50 | > 38.5 | > 50 | > 50 | > 46.6 | > 50
12 | CC(=O)c1ccc2c(c1)CC1(C2)Cc2cc3c(c(C(=O)O)c2C1)CCC3 (stereo unspecified) | > 100 | > 100 | > 100 | > 100 | > 100 | > 100 | > 100 | > 100 |  | > 100 | > 100 | > 100 | > 100
13 | CCOC(=O)c1nc2ccc(C(F)(F)F)cc2nc1NCc1ccc(OC)c(OC)c1 | > 100 | > 100 | > 100 | > 100 | > 100 | > 100 | > 100 | > 100 | 86.1 | > 100 | > 100 | > 100 | 
14 | CCOC(=O)/C(=N/Nc1ccccc1)N1C(=S)C=C(C)NN(C)C1=S |  | > 100 | > 100 |  | > 100 | > 100 | > 100 | > 100 | > 100 | > 100 | 50.9 | 20.1 | > 100
15 | CC(=O)O[C@H]1C(=O)[C@@]2(C)[C@H]([C@H](OC(=O)c3ccccc3)[C@]3(O)C[C@H](OC(=O)[C@H](O)[C@@H](NC(=O)c4ccco4)c4ccccc4)C(C)=C1C3(C)C)[C@]1(OC(C)=O)CO[C@@H]1C[C@@H]2O | > 12.5 | > 12.5 | > 12.5 | > 12.5 | > 12.5 | > 12.5 | > 12.5 | > 12.5 |  | 0.0107 | > 12.5 |  | 
16 | O=Cc1cc(C(=O)OCc2ccccc2)n(S(=O)(=O)c2ccccc2)c1 |  | 36.6 | 94.4 | 33.7 | 84 | 78.1 | > 100 | 60.9 | 39.6 | 66.3 |  | 94.9 | 33.7
17 | CCCc1cc(COC)c(C#N)c(=O)[nH]1 | > 100 | > 100 | > 100 | > 100 | > 100 | > 100 | > 100 | > 100 |  | > 100 | > 100 | > 100 | > 100
18 | [B-][P+](CC[P+]1([B-])[C@@H](C)[C@@H](O)[C@H](O)[C@@H]1C)(c1ccccc1)c1ccccc1OC (stereo partly specified) | 32 | 31.6 | 25 | 33.6 | 31.3 | 29.5 | 41.7 | 31.3 | 30.2 | 37.6 | 30.6 | 31.2 | 
